Source: patent US8288439B2, “Methods and compositions for the inhibition of HIV-1 replication” (The United States of America, as represented by the …, priority 2003, dated 2012)
Entries after “also recorded” stand apart in the source; their conditions may differ. Where two headings read alike, the source gives them in different places.

Tests used:
CD4 and CCR5 = experiment: Macrophage CD4 and CCR5 expression; assay type: cell-based, human
Experimental: Macrophages were also treated with p21 siRNA duplexes (5 nM) five days prior to HIV infection and the effect on HIV-growth was determined (% of positive HIV control, no siRNA treatment) (representative experiment, n=3) (FIG. 6B). The percent of HIV-1 infection was determined comparing the p24 levels in untreated vs oligo or siRNA treated macrophages. Cells treated with p21 and negative control siRNA (5 days) were also analyzed by flow cytometry for CD4 and CCR5 cell surface expression (FIG. 6C). Nested PCR was employed in order to detect pro-viral DNA on days 1 and 3 after HIV-1BaL infection in macrophages treated with p21 or control siRNA or negative control si RNA. Control represents uninfected cells (FIG. 6D).

macrophages = experiment: Macrophage cell viability / cell number, morphology and ultrastructural analysis; settings: for cell viability (cell number, morphology, ultrastructural analysis): infected or uninfected macrophage cultures treated with oligonucleotides
Experimental: To determine whether the increased p21 influenced viral life cycle, the cells are treated with two distinct p21 anti-sense oligonucleotides (SEQ ID NO. 7 and SEQ ID NO. 9).

p21 (CDKN1A) [1] = experiment: p21 (CDKN1A) gene expression in HIV-1 infected macrophages (ribonuclease protection assay); assay type: cell-based, human; settings: for human p21 expression: murine-derived antisense sequences tested in human macrophages
Description: Total cellular RNA is extracted from adherent control or infected monocytes with the RNeasy minikit (Qiagen, Valencia, Calif.) and analyzed by northern blot (Wahl, S. M. et al. (1998) “MYCOBACTERIUM AVIUM COMPLEX AUGMENTS MACROPHAGE HIV-1 PRODUCTION AND INCREASES CCR5 EXPRESSION. Proc Natl Acad Sci USA 95:12574-12579) using an HIV-full length probe (NIH AIDS Research and Reference Reagent Program) and GAPDH (glyceraldehyde-3-phosphate dehydrogenase) (Gibco BRL, Gaithersburg, Md.). For the RPA 3 μg of RNA is evaluated using the hStress tRiboquant Multi-Probe RPA system (BD Pharmingen, San Diego, Calif.) and densities are normalized to the GAPDH gene using ImageQuant (Molecular Dynamics, Sunnyvale, Calif.)

HIV-1 [2] = settings: for viral replication / HIV-1 growth as determined by p24 levels: oligonucleotide 50 nM, after HIV-1 infection and at refeeding, day 12, vs HIV control without oligo
Experimental: Monocytes are plated in 6 well plates (Corning Costar Corporation, Cambridge, Mass.), at 6×10^6 cells/well or in Lab-Tek chamber slides (Naperville, Ill.) at 1.5×10^6/chamber in Dulbecco's modified Eagle's medium (DMEM) with 2 mM L-glutamine and 10 μg/ml gentamicin (BioWhittaker) or in other suitable vessels. After adherence (4-6 hr at 37° C. and 5% CO2), 10% human AB-serum (Sigma, St. Louis, Mo.) is added to the culture medium. Cells are cultured 5-10 days to allow differentiation into macrophages before being infected with HIV-1BaL TCID50=1000-5000 (Advanced Biotechnologies Inc., Columbia, Md.) or other M tropic (R5) virus for 90 minutes at 37° C. The levels of endotoxin are below the limit of detection in virus preparations. Unbound virus is removed by washing the cells with media and refeeding with complete DMEM containing 10% human serum. Control populations of adherent macrophages are mock-infected and cultured in parallel. Every 3 to 4 days, half the medium is removed for virus assay and replaced with fresh complete medium for two weeks. Supernatant p24 antigen is assayed using the p24 core profile enzyme-linked immunosorbent assay (ELISA) kit (Perkin-Elmer Life Sciences, Wilmington, Del.). […] Additionally, macrophages are treated with p21 anti-sense phosphorothioate oligonucleotides:

p21 (CDKN1A) [3] = experiment: p21 protein levels in macrophages; assay type: cell-based, human; settings: concomitant with reducing HIV infection
Experimental: Uninfected and HIV-1 infected macrophages that have been cultured for twelve days are washed twice with PBS, fixed with 2% paraformaldehyde in PBS, washed and incubated in 100 mM glycine in PBS for 20 min, followed by 0.5% Triton-X-100 for 10 min and rinsed with PBS. Cells are then labeled with rabbit anti-p21 antibody at 5 μg/ml (Santa Cruz Biotechnology, Santa Cruz, Calif.) in PBS containing 5% donkey serum (Jackson ImmunoResearch Laboratories, Inc., West Grove, Pa.) for 1 hr, washed extensively, then incubated with Texas-Red conjugated secondary antibody at 3 μg/ml at room temperature (Molecular Probes, Eugene, Oreg.). Non-specific background is determined using an irrelevant rabbit isotype control antibody and secondary antibody alone at the same concentrations above. Images are captured using a Leica TCS-4D confocal microscope system with a Kr—Ar laser on a DMR upright microscope using a 40×, 1.0 numerical aperture objective. Fluorescence intensity analysis is performed using confocal microscopy and Metamorph analysis (Universal Imaging, Downington, Pa.). […]

HIV-1 [4] = experiment: Transmission electron microscopy (ultrastructural analysis) of HIV-1 infected macrophages; assay type: cell-based; settings: day 12; ≧200 cells/treatment condition
Description: Gluteraldehyde-fixed uninfected and infected cells are postfixed in OsO4, dehydrated through graded ethanol and propylene oxide, embedded in Spurr's epoxy, and thick- and thin-sectioned. Thin sections are placed on copper grids, stained with uranyl acetate and lead citrate, and viewed in a Zeiss EM10 microscope (LEO Electron Microscope; Oberkochen, Germany).

p21 = experiment: Induction of p21 gene and protein expression in macrophages treated with Vpr; assay type: cell-based, human; settings: Vpr 6 μg/ml for 3 hr
Experimental: Macrophages were treated with Vpr (6 μg/ml) for 3 hr and found to show increased gene transcription and protein expression for p21 when treated with Vpr (FIG. 7A and FIG. 7B).

5′-ACATCACCAGGATTGGACAT-3′ (all phosphorothioate, sugars by position and methylation of C not given here; listed as Mus musculus) [SEQ ID NO. 9]
effect on macrophage CD4 and CCR5 (CD4 and CCR5): no direct effect
cell viability (cell number, morphology, ultrastructural analysis) (macrophages): no negative effect
human p21 expression (p21 (CDKN1A) [1]): effective in inhibiting
viral replication / HIV-1 growth as determined by p24 levels (HIV-1 [2]): reduce viral replication; also recorded: inhibit HIV-1 growth

5′-TGGATCCGACATGTCAGA-3′ [SEQ ID NO. 14]
viral replication / HIV-1 growth as determined by p24 levels (HIV-1 [2]): not
viral replication / HIV-1 growth as determined by p24 levels (HIV-1 [2]; listed as SEQ ID NO. 13): did not suppress

5′-TGTCAGGCTGGTCTGCCTCC-3′ (all phosphorothioate, sugars by position and methylation of C not given here; listed as Mus musculus) [SEQ ID NO. 7]
effect on macrophage CD4 and CCR5 (CD4 and CCR5): no direct effect
cell viability (cell number, morphology, ultrastructural analysis) (macrophages): no negative effect
human p21 expression (p21 (CDKN1A) [1]): effective in inhibiting
viral replication / HIV-1 growth as determined by p24 levels (HIV-1 [2]): reduce viral replication; also recorded: inhibit HIV-1 growth

CC1(C)CC[C@]2(C(=O)O)CC[C@]3(C)[C@H](C(=O)C=C4[C@@]5(C)C=C(C#N)C(=O)C(C)(C)[C@@H]5CC[C@]43C)[C@@H]2C1 [CDDO]
p21 protein levels (p21 (CDKN1A) [3]): variably decrease
detectable virions (TEM) (HIV-1 [4]): absence or near absence of detectable virions
numbers of infected cells (ultrastructural analysis, TEM) (HIV-1 [4]): dramatically reduced numbers of infected cells
cell viability or cell number (macrophages; HIV-1 infected macrophages treated with CDDO or di-CDDO): Without reducing cell viability or cell number
p21 transcription by ribonuclease protection assay (p21 (CDKN1A) [1]; HIV-1 infected macrophages, day 12 post-infection, mean, n=2): reduced p21 transcription
release of the viral protein p24 Ag (HIV-1 [2]; added prior to, or at the time of, infection of macrophages with HIV-1, CDDO 0.1 μM): dose dependent suppression
levels of detectable virus (HIV-1 [2]; macrophages infected with HIV-1): dramatically reduced
viral replication as quantitated by p24 levels (HIV-1 [2]; macrophages pre-treated 45 min, then infected with HIV-1BaL, compared with DMSO control and untreated cells, day 10, n=3, P=0.01): reduced viral replication

Vpr: HIV-1 Vpr gene product, added to macrophages at 6 μg/ml
p21 gene transcription (p21): increased
p21 protein expression (p21): increased
